Row | SMILES | melting point [°C]
1 | CCC[C@H](NC(=O)[C@@H](O)C(C)(C)C)C(=O)Nc1nc(C)c(-c2ccccc2COc2ccccc2)s1 [compound 34, (2S)-2-{[(2S)-2-hydroxy-3,3-dimethylbutanoyl]amino}-N-{4-methyl-5-[2-(phenoxymethyl)phenyl]-1,3-thiazol-2-yl}pentanamide] | 99
2 | CCC[C@H](NC(=O)[C@@H](O)C(C)(C)C)C(=O)Nc1ncc(-c2ccc(C)cc2COc2ccccc2)s1 [compound 59, (2S)-2-{[(2S)-2-hydroxy-3,3-dimethylbutanoyl]amino}-N-{5-[4methyl-2-(phenoxymethyl)phenyl]-1,3-thiazol-2-yl}pentanamide] | 92.6
3 | CCC[C@H](NC(=O)[C@@H](O)C(C)(C)C)C(=O)Nc1ncc(-c2ccccc2COc2ccccc2OC(F)(F)F)s1 [compound 24, (2S)-2-{[(2S)-2-hydroxy-3,3-dimethylbutanoyl]amino}-N-[5-(2-{[2-(trifluoromethoxy)phenoxy]methyl}phenyl)-1,3-thiazol-2-yl]pentanamide] | 66
4 | CCC[C@H](NC(=O)[C@@H](O)C(C)(C)C)C(=O)Nc1ncc(-c2cc(F)ccc2COc2ccccc2)s1 [compound 54, (2S)—N-{5-[5-fluoro-2-(phenoxymethyl)phenyl]-1,3-thiazol-2-yl}-2-{[(2S)-2-hydroxy-3,3-dimethylbutanoyl]amino}pentanamide] | 105.4
5 | CCC[C@H](NC(=O)[C@@H](O)C(CC)CC)C(=O)Nc1ncc(-c2ccccc2COc2ccccc2)s1 [Compound No. 43, (2S)-3-ethyl-2-hydroxy-N-{(1S)-1-[({5-[2-(phenoxymethyl)phenyl]-1,3-thiazol-2-yl}amino)carbonyl]butyl}pentanamide] | 122.5
6 | CCC[C@H](NC(=O)[C@@H](O)C(C)(C)C)C(=O)Nc1ncc(-c2ccccc2COc2ccccc2C#N)s1 [compound 69, (2S)—N-(5-{2-[(2-cyanophenoxy)methyl]phenyl}-1,3-thiazol-2-yl)-2-{[(2S)-2-hydroxy-3,3-dimethylbutanoyl]amino}pentanamide] | 99
7 | CCC[C@H](NC(=O)[C@@H](O)CC(C)C)C(=O)Nc1ncc(-c2ccccc2COC2CCCCC2)s1 [compound 51, (2S)—N-((1S)-1-{[(5-{2-[(cyclohexyloxy)methyl]phenyl}-1,3-thiazol-2-yl)amino]carbonyl}butyl)-2-hydroxy-4-methylpentanamide] | 158
8 | CCC[C@H](NC(=O)[C@@H](O)C(C)(C)C)C(=O)Nc1ncc(-c2ccccc2COc2cc(C)c(C)cc2Cl)s1 [compound 71, (2S)—N-(5-{2-[(2-chloro-4,5-dimethylphenoxy)methyl]phenyl}-1,3-thiazol-2-yl)-2-{[(2S)-2-hydroxy-3,3-dimethylbutanoyl]amino}pentanamide] | 85
9 | CCC[C@H](NC(=O)[C@@H](O)C(C)(C)C)C(=O)Nc1ncc(-c2ccccc2COc2cccc(OC(F)(F)F)c2)s1 [compound 17, (2S)-2-{[(2S)-2-hydroxy-3,3-dimethylbutanoyl]amino}-N-[5-(2-{[3-(trifluoromethoxy)phenoxy]methyl}phenyl)-1,3-thiazol-2-yl]pentanamide] | 114
10 | CCC[C@H](NC(=O)[C@@H](O)C(C)(C)C)C(=O)Nc1ncc(-c2ccccc2COc2cccc(Cl)c2Cl)s1 [compound 73, (2S)—N-(5-{2-[(2,3-dichlorophenoxy)methyl]phenyl}-1,3-thiazol-2-yl)-2-{[(2S)-2-hydroxy-3,3-dimethylbutanoyl]amino}pentanamide] | 71.1
11 | CCC[C@H](NC(=O)C(O)C(C)(C)C)C(=O)Nc1ncc(-c2ccccc2COc2c(Cl)cccc2Cl)s1 (stereo partly drawn) [compound 41, (2S)—N-(5-{2-[(2,6-dichlorophenoxy)methyl]phenyl}-1,3-thiazol-2-yl)-2-[(2-hydroxy-3,3-dimethylbutanoyl)amino]pentanamide] | 126
